This passage reports IC50 and T/C results from ChEMBL document CHEMBL5584345, “Discovery of Novel 2-Aminopyridine-Based and 2-Aminopyrimidine-Based Derivatives as Potent CDK/HDAC Dual Inhibitors for the Treatment of Refractory Solid Tumors and Hematological Malignancies” (J Med Chem, 2024).

The term IC50 denotes the point on the concentration scale where inhibition reaches its midpoint. In general, T/C refers to the ratio of treated to control.

The target in test [1] is Cyclin-dependent kinase 2 (Homo sapiens, UniProt P24941). Nature of the test: Inhibition of CDK2 (unknown origin) using ULight 4EBP1 peptide as substrate incubated for 2 hrs in presence of ATP by FRET assay.
Test [2] concerns the target Cyclin-dependent kinase 7 (Homo sapiens, UniProt P50613).
Description: Inhibition of CDK7 (unknown origin) using ULight 4EBP1 peptide as substrate incubated for 2 hrs in presence of ATP by FRET assay
In a further test the target is Histone deacetylase 4 (Homo sapiens, UniProt P56524). Nature of the test: Inhibition of human recombinant HDAC4 using Ac-Leu-Gly-Lys(Tfa)-AMC as substrate incubated for 24 hrs by fluorescence based Envision plate reader analysis.
Histone deacetylase 4, sequence (P56524 whole entry): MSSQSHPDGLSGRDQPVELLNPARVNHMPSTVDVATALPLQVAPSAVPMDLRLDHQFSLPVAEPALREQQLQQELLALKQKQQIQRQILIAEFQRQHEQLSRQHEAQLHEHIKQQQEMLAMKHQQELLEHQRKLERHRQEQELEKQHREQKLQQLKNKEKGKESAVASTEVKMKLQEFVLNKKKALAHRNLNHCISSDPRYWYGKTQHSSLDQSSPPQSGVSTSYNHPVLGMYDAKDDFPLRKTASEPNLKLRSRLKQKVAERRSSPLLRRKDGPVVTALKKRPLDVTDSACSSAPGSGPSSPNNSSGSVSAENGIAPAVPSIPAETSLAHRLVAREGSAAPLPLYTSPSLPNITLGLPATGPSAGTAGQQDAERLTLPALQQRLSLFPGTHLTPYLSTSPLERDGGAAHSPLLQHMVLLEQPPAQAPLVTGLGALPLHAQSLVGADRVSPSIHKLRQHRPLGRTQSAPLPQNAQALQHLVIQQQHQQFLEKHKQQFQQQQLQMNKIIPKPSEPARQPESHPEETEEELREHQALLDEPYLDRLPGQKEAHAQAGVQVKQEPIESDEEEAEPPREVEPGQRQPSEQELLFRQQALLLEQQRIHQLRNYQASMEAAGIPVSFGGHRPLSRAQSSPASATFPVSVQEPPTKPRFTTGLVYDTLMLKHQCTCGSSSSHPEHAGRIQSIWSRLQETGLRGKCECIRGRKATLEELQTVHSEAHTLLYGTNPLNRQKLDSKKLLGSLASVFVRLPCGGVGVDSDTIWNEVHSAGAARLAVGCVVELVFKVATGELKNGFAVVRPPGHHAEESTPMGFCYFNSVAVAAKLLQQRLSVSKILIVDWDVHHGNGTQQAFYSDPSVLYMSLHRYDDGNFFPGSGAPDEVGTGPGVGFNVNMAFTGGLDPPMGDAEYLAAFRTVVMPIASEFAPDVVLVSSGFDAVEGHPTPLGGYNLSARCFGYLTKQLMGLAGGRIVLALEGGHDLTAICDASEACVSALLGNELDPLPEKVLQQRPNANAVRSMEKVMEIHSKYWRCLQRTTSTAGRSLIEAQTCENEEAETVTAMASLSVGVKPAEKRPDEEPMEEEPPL
The target of another test is Histone deacetylase 3 (Homo sapiens, UniProt O15379).
Histone deacetylase 3, sequence (O15379 whole entry): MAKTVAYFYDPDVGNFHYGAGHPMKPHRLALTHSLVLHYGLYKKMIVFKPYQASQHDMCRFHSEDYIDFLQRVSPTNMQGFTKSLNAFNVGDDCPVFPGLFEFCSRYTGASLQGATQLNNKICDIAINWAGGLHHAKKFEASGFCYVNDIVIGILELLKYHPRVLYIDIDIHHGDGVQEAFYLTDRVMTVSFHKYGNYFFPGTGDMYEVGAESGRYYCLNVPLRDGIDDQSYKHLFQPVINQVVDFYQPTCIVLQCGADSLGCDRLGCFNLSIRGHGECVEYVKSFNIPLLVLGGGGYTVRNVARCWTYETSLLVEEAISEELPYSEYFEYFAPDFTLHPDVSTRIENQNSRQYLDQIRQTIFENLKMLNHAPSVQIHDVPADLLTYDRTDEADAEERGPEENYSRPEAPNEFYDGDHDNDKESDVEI
The target in test [3] is Cyclin-dependent kinase 9 (Homo sapiens, UniProt P50750).
Cyclin-dependent kinase 9, sequence (P50750 whole entry): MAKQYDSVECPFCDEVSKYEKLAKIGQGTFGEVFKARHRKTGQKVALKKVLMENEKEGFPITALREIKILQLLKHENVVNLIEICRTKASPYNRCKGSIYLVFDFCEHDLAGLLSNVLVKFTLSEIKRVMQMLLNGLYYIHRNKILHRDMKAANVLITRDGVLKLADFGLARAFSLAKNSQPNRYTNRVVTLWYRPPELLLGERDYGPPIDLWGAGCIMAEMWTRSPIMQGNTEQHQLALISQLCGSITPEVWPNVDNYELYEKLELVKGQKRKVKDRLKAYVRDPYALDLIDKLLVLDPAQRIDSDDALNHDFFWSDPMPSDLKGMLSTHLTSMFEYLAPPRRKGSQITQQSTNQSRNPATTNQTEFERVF
Description: Inhibition of CDK9 (unknown origin) using ULight 4EBP1 peptide as substrate incubated for 2 hrs in presence of ATP by FRET assay
The next test has as its target Histone deacetylase 1 (Homo sapiens, UniProt Q13547).
For test [4], the target named is Protein deacetylase HDAC6 (Homo sapiens, UniProt Q9UBN7).
Description: Inhibition of human recombinant HDAC6 using Boc-Lys(eta-acetyl)-AMC as substrate incubated for 24 hrs by fluorescence based Envision plate reader analysis
The target in the next test is Aurora kinase A (Homo sapiens, UniProt O14965). Nature of the test: Inhibition of AurorA (unknown origin).
Aurora kinase A, sequence (O14965 whole entry): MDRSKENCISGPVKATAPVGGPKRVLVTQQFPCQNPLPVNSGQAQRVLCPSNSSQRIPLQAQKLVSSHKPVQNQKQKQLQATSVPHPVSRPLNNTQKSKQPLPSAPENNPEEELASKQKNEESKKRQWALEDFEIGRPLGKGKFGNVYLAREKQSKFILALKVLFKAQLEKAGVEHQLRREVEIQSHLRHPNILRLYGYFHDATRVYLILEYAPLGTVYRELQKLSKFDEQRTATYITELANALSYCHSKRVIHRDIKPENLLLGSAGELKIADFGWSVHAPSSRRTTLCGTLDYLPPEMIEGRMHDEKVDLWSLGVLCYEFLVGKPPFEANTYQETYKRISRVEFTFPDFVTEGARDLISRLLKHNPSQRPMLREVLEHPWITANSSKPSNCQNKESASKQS
The target of test [5] is Serine/threonine-protein kinase Chk1 (Homo sapiens, UniProt O14757). As to the kind of experiment: Inhibition of CHK1 (unknown origin).
Test [6] addresses Serine/threonine-protein kinase 17B (Homo sapiens, UniProt O94768). Nature of the test: Inhibition of DRAK2 (unknown origin).
In test [7] the target is Interleukin-1 receptor-associated kinase 4 (Homo sapiens, UniProt Q9NWZ3). As to the kind of experiment: Inhibition of IRAK4 (unknown origin).
Interleukin-1 receptor-associated kinase 4, sequence (Q9NWZ3 whole entry): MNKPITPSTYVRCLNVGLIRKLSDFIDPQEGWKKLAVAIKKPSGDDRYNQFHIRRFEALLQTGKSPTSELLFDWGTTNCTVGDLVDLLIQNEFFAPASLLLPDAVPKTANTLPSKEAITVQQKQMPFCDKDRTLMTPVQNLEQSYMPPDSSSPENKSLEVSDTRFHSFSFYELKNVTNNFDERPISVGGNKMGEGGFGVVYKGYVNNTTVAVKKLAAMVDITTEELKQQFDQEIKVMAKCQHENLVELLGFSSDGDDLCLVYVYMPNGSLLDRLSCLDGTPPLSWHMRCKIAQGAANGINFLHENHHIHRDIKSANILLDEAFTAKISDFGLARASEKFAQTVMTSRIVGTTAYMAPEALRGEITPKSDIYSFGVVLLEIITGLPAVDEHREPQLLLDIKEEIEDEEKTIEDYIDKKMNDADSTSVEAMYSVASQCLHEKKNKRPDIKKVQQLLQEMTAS
For test [8], the target named is Serine/threonine-protein kinase pim-1 (Homo sapiens, UniProt P11309). As to the kind of experiment: Inhibition of PIM1 (unknown origin).
For test [9], the target named is Receptor-type tyrosine-protein kinase FLT3 (Homo sapiens, UniProt P36888). Nature of the test: Inhibition of FLT3 (unknown origin).
Receptor-type tyrosine-protein kinase FLT3, sequence (P36888 whole entry): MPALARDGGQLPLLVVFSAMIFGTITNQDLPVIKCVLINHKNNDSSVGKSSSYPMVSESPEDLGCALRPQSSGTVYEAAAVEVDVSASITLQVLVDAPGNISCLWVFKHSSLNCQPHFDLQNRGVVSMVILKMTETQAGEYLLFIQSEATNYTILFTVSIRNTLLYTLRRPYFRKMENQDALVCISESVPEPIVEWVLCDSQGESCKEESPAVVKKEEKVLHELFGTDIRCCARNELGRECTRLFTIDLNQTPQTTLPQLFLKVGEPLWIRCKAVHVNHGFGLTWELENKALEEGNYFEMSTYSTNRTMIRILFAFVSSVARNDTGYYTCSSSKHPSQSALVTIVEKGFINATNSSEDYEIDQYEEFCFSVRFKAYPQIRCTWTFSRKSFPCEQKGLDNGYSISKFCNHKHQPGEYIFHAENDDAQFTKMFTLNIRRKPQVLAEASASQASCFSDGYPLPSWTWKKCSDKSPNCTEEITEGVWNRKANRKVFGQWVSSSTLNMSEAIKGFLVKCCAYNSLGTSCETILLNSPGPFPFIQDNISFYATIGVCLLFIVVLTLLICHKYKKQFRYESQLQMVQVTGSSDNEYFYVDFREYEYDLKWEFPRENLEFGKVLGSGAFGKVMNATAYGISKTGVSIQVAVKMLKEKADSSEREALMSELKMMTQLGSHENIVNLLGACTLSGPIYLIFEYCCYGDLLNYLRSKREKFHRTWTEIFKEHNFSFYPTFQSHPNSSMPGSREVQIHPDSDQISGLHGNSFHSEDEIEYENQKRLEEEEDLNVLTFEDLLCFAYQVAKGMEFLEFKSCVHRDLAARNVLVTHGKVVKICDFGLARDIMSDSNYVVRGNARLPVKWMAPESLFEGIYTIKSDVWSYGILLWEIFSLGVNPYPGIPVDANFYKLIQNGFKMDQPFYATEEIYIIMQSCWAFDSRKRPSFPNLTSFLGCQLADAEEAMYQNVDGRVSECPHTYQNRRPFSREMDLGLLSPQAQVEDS
The target of test [10] is Tyrosine-protein kinase JAK3 (Homo sapiens, UniProt P52333). As to the kind of experiment: Inhibition of JAK3 (unknown origin).
In test [11] the target is Ribosomal protein S6 kinase beta-1 (Homo sapiens, UniProt P23443). Nature of the test: Inhibition of P70S6K (unknown origin).
Test [12] deals with Tyrosine-protein kinase BTK (Homo sapiens, UniProt Q06187). Nature of the test: Inhibition of BTK (unknown origin).
Tyrosine-protein kinase BTK, sequence (Q06187 whole entry): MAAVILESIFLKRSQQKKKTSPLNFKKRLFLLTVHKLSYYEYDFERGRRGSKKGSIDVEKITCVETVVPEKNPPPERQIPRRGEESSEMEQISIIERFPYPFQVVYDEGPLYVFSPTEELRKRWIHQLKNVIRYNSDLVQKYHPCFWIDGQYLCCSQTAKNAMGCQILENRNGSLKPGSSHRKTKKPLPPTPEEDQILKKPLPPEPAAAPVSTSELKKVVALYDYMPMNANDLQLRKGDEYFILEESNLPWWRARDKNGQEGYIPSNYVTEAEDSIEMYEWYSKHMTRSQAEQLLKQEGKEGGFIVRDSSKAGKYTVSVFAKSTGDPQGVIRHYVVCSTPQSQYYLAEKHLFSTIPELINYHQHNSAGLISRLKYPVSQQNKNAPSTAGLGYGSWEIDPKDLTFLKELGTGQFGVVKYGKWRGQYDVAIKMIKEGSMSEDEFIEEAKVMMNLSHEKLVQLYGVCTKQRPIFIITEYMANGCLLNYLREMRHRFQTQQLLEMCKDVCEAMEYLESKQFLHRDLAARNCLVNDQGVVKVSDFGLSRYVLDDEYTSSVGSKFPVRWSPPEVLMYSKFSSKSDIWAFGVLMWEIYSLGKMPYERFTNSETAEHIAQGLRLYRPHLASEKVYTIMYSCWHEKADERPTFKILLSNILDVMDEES
For test [13], the target named is Epidermal growth factor receptor (Homo sapiens, UniProt P00533). Nature of the test: Inhibition of EGFR (unknown origin).
In another test the test system is HT-29. As to the kind of experiment: Antiproliferative activity against human HT-29 cells incubated for 72 hrs by celltiter-glo luminescent assay. The settings on record: HT-29, 72 h. For orientation: In ATP-based viability assays light output follows the ATP content of the culture.
In the next test the test system is CESS. Nature of the test: Antiproliferative activity against human CESS cells incubated for 72 hrs by celltiter-glo luminescent assay.
In test [14] the test system is MV4-11. As to the kind of experiment: Antiproliferative activity against human MV4-11 cells incubated for 72 hrs by celltiter-glo luminescent assay. The settings on record: MV4-11, 72 h.
In the next test the test system is PC-9. As to the kind of experiment: Antiproliferative activity against human PC-9 cells incubated for 72 hrs by celltiter-glo luminescent assay. The settings on record: PC-9, 72 h.
The test system of another test is Rec1. Nature of the test: Antiproliferative activity against human REC1 cells incubated for 72 hrs by celltiter-glo luminescent assay. The settings on record: Rec1, 72 h.
In another test the test system is A549. Nature of the test: Antiproliferative activity against human A549 cells incubated for 72 hrs by celltiter-glo luminescent assay. Format: functional, cell-based. The settings on record: A549, 72 h.
Another test relates to KG-1. Nature of the test: Antiproliferative activity against human KG-1 cells incubated for 72 hrs by celltiter-glo luminescent assay. The settings on record: KG-1, 72 h.
The test system of test [15] is MV4-11. Nature of the test: Antitumor activity against human MV4-11 cells xenografted in female nu/nu mouse assessed as test to control ratio at 50 mg/kg, sc bid for 19 days. It counts as functional. The settings on record: time 19 day. In general terms: A xenograft is tissue or cells of one species grown in another, often human tumour cells in immunodeficient mice.

Cyclin-dependent kinase 7, sequence (P50613 whole entry): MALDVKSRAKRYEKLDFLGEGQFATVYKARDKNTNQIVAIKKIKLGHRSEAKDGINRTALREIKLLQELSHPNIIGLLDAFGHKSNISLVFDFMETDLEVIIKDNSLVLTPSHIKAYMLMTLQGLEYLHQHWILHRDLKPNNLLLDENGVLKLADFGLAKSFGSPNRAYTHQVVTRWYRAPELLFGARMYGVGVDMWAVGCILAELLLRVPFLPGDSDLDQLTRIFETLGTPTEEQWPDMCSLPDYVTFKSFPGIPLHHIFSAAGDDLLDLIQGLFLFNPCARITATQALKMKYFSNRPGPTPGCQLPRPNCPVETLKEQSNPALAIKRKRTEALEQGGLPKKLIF
Description for Histone deacetylase 1: Inhibition of human recombinant HDAC1 using Ac-Lys-Tyr-Lys(eta-acetyl)-AMC as substrate incubated for 24 hrs by fluorescence based Envision plate reader analysis

For `CCCNNC(=O)CCCCCCn1cc(Nc2ncc(Cl)c(-c3cnc4ccccn34)n2)cn1`, the IC50 in [1] is greater than 10 µM; in test [2], greater than 10 µM; at Histone deacetylase 4 it was greater than 20 µM.

On to `O=C(/C=C/c1ccc(Nc2ncc(Cl)c(OC3CCCCC3)n2)cc1)NO`, for which the IC50 against Histone deacetylase 3 is 7.21 µM; in test [3], 7.89 µM; against Histone deacetylase 1, greater than 10 µM; in [4] it was 0.646 µM.

For the compound `COc1cc(F)ccc1-c1cc(Nc2cnn(CCCCCC(=O)NO)c2)ncc1F`, the half-inhibitory concentration (IC50) (in test [2]; on Histone deacetylase 4) was greater than 10 µM throughout.

For the compound `N#CC1(CNc2cccc(-c3cc(Nc4cnn(CCCCCCC(=O)NO)c4)ncc3Cl)n2)CCOCC1`, the IC50 in test [2] was greater than 10 µM; on Histone deacetylase 4 it was 4.4 µM.

For the compound `CCCNNC(=O)CCCCCn1cc(Nc2ncc(Cl)c(-c3cnc4ccc(-c5ccccc5)cn34)n2)cn1`, the half-maximal inhibitory concentration (IC50) in test [2] is greater than 10 µM; at Histone deacetylase 4 it was greater than 20 µM.

Regarding `COc1cc(F)ccc1-c1cc(Nc2ccc(NC(=O)CCCCCCC(=O)NO)cc2)ncc1F`, the IC50 (in test [2]; at Histone deacetylase 4) was greater than 10 µM in each case.

With `CCCNNC(=O)c1ccc(Cn2cc(Nc3ncc(Cl)c(-c4cnc5ccccn45)n3)cn2)cc1`, the half-maximal inhibitory concentration (IC50) was greater than 10 µM against Aurora kinase A; 0.973 µM in [2]; greater than 10 µM in test [5]; greater than 10 µM in [6]; greater than 10 µM in [7]; greater than 10 µM in [8]. For the same compound, the IC50 in test [9] is 0.0304 µM; at Histone deacetylase 4, greater than 20 µM; in [10], 2.38 µM; in test [11], 0.371 µM; in [12], 9.13 µM; in test [13], greater than 10 µM.

Turning to `COc1cc(F)ccc1-c1cc(Nc2ccc(NC(=O)CCCCCCC(=O)Nc3ccccc3N)cc2)ncc1F`, the concentration for half-maximal inhibition (IC50) in test [2] is greater than 10 µM; on Histone deacetylase 4, greater than 20 µM.

Consider `O=C(CCCCCn1cc(Nc2ncc(Cl)c(-c3cnc4ccccn34)n2)cn1)NO`, for which the values for the IC50 (in test [2]; on Histone deacetylase 4) were 0.566 µM and greater than 10 µM, respectively.

With `O=C(CCCCCCn1cc(Nc2ncc(Cl)c(-c3cnc4ccccn34)n2)cn1)NO`, the results for the IC50 (in test [2]; on Histone deacetylase 4) were 2.81 µM and greater than 10 µM, respectively.

For the compound `COC[C@@H](C)N[C@H]1CC[C@H](Nc2cc(-c3cccc(NCC4(C#N)CCOCC4)n3)c(Cl)cn2)CC1`, the half-maximal inhibitory concentration (IC50) is greater than 10 µM in test [1]; greater than 10 µM in test [2]; 0.02 µM in the test with HT-29; 0.0041 µM in test [3]; 0.01 µM in the test on CESS; 0.003 µM with MV4-11 [14]. Besides, the half-inhibitory concentration (IC50) in the test on PC-9 was determined as 0.03 µM; in the test with Rec1 it was 0.03 µM; in the test on A549, 5.78 µM; in the test with KG-1 it was 0.02 µM.

Turning to `CCCNNC(=O)CCCCCn1cc(Nc2ncc(Cl)c(-c3cnc4ccccn34)n2)cn1`, the IC50 in [1] was greater than 10 µM; in test [2], greater than 10 µM; at Histone deacetylase 4 it was greater than 20 µM.

Regarding `N#CC1(CNc2cccc(-c3cc(Nc4cnn(Cc5ccc(C(=O)Nc6ccccc6N)cc5)c4)ncc3Cl)n2)CCOCC1`, the IC50 (against Aurora kinase A; in [5]; in test [6]; in [7]; in test [8]; in test [9]) was greater than 10 µM each time. The half-maximal inhibitory concentration (IC50) on Histone deacetylase 4 was greater than 20 µM; in test [10] it was greater than 10 µM; in test [11], greater than 10 µM; in [12] it was greater than 10 µM; in [13], greater than 10 µM.

In the test on KG-1, `O=C(CCCCCCC(=O)Nc1ccccc1)NO` [VORINOSTAT] displayed a 50% inhibitory concentration (IC50) of 0.79 µM.

On to `COc1cc(F)ccc1-c1cc(Nc2cnn(CCCCCCC(=O)NO)c2)ncc1F`, for which the IC50 (in test [2]; at Histone deacetylase 4) was greater than 10 µM throughout.

With `Nc1ccn([C@@H]2O[C@H](CO)[C@@H](O)[C@@H]2O)c(=O)n1` [CYTARABINE], the T/C in the test on MV4-11 [15] is given as 33.41%.

Consider `N#CC1(CNc2cccc(-c3cc(Nc4cnn(CCCCCC(=O)NO)c4)ncc3Cl)n2)CCOCC1`, for which the figures for the IC50 (in test [2]; on Histone deacetylase 4) were greater than 10 µM and 2.5 µM, respectively.

Consider `COc1cc(F)ccc1-c1cc(Nc2ccc(/C=C/C(=O)Nc3ccccc3N)cc2)ncc1F`, for which the IC50 is 3.55 µM against Histone deacetylase 3, 0.0684 µM in [3], greater than 20 µM at Histone deacetylase 1 and greater than 20 µM in test [4].

Turning to `N#CC1(CNc2cccc(-c3cc(Nc4cnn(CCCCCCC(=O)Nc5ccccc5N)c4)ncc3Cl)n2)CCOCC1`, the results for the IC50 (in test [2]; at Histone deacetylase 4) were greater than 10 µM and greater than 20 µM, respectively.

`N#CC1(CNc2cccc(-c3cc(Nc4cnn(Cc5ccc(C(=O)NO)cc5)c4)ncc3Cl)n2)CCOCC1`: the half-maximal inhibitory concentration (IC50) in test [2] was greater than 10 µM; on Histone deacetylase 4, 1.08 µM.

As for `CCCNNC(=O)c1ccc(Cn2cc(Nc3ncc(Cl)c(-c4cnc5ccc(-c6ccccc6)cn45)n3)cn2)cc1`, the half-maximal inhibitory concentration (IC50) was greater than 10 µM in [1], greater than 10 µM in test [2] and greater than 20 µM on Histone deacetylase 4.
